What all share (type): biochemical
For experiment [1], the target named is T1, recombinant soluble tissue factor and recombinant human factor VIIa (Homo sapiens, UniProt P08709).
T1 construct: purchased American Diagnostica, Greenwich Conn; (factor VIIa); soluble TF made in house; host or cells: E. coli (soluble TF only)
The experiment is described as follows: TF-VIIa Assay. Conditions: chromogenic substrate, 60 min at room temperature, pH 8.0. The protocol: In this assay 100 nM recombinant soluble tissue factor and 2 nM recombinant human factor VIIa are added to a 96-well assay plate containing 0.4 mM of the substrate, N-Methylsulfonyl-D-phe-gly-arg-p-nitroaniline and either inhibitor or buffer (5 mM CaCl2, 50 mM Tris-HCl, pH 8.0, 100 mM NaCl, 0.1% BSA). The reaction, in a final volume of 100 ul is measured immediately at 405 nm to determine background absorbance. The plate is incubated at room temperature for 60 min, at which time the rate of hydrolysis of the substrate is measured by monitoring the reaction at 405 nm for the release of p-nitroaniline. Percent inhibition of TF-VIIa activity is calculated from OD405 nm value from the experimental and control sample.
(§1) Recombinant soluble TF, consisting of amino acids 1-219 of the mature protein sequence was expressed in E. coli and purified using a Mono Q Sepharose FPLC. Recombinant human VIIa was purchased from American Diagnostica, Greenwich Conn. and chromogenic substrate N-Methylsulfonyl-D-phe-gly-arg-p-nitroaniline was prepared by American Peptide Company, Inc., Sunnyvale, Calif. Factor Xa was obtained from Enzyme Research Laboratories, South Bend Ind., thrombin from Calbiochem, La Jolla, Calif., and trypsin and L-BAPNA from Sigma, St Louis Mo. The chromogenic substrates S-2765 and S-2238 were purchased from Chromogenix, Sweden.

The target in the next experiment is human thrombin (Homo sapiens, UniProt P00734). The experiment is described as follows: Thrombin Assay. The note with it: chromogenic substrate, 60 min at room temperature, pH 8.0; read-out: Thrombin II IC50. The protocol:
(§2) 0.28 nM human thrombin and 0.06 mM H-D-Phenylalanyl-L-pipecolyl-L-argioine-p-nitroaniline dihydrochloride are added to a 96-well assay plate containing either inhibitor or buffer (50 mM Tris-HCl, pH 8.0, 100 mM NaCl, 0.1% BSA). The reaction, in a final volume of 100 ul is measured immediately at 405 nm to determine background absorbance. The plate is incubated at room temperature for 60 min, at which time the rate of hydrolysis of the substrate is measured by monitoring the reaction at 405 nm for the release of p-nitroaniline. Percent inhibition of thrombin activity is calculated from OD405 nm value from the experimental and control sample.
as §1

The target of experiment [2] is T2, trypsin, type IX from porcine pancreas (Sus scrofa, UniProt P00761).
T2 construct: purchased Sigma, St Louis Mo. type IX; host or cells: porcine pancreas
T2 sequence (P00761 9-231): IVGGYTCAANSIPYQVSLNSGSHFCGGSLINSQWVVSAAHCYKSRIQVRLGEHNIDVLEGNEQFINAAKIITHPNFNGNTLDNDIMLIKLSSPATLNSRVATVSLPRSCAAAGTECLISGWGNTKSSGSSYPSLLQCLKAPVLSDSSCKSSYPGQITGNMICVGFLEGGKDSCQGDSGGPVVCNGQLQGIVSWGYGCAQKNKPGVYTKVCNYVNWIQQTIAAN
The experiment in a line: Trypsin Assay. Conditions: substrate L-BAPNA, 60 min at room temperature, pH 8.0; read-out: Trypsin II IC50. The protocol:
5 ug/ml trypsin, type IX from porcine pancreas and 0.375 mM N-α-Benzoyl-L-arginine-p-nitroanilide (LBAPNA) are added to a 96-well assay plate containing either inhibitor or buffer (50 mM Tris-HCl, pH 8.0, 100 mM NaCl, 0.1% BSA). The reactions, in a final volume of 100 ul are measured immediately at 405 nm to determine background absorbance. The plate is incubated at room temperature for 60 min, at which time the rate of hydrolysis of the substrate is measured by monitoring the reaction at 405 nm for the release of p-nitroaniline. Percent inhibition of trypsin activity is calculated from OD405 nm value from the experimental and control sample.
as §1

A further experiment has as its target T3, human factor Xa (Homo sapiens, UniProt P00742).
T3 construct: leads from XII to XIIa to XIa to IXa and to the conversion of X to Xa; purchased Enzyme Research Laboratories, South Bend Ind
The experiment is described as follows: Xa Assay. The note with it: substrate S-2765, 60 min at room temperature, pH 8.0. The protocol:
as §2, with “0.3 nM” for “0.28 nM”, “human factor Xa” for “human thrombin”, “and 0.15” for “and 0.06”, “mM N-α-Benzyloxycarbonyl-D-arginyl-L-glycyl-L-arginine-p-nitroaniline-dihydrochloride (S-2765)” for “mM H-D-Phenylalanyl-L-pipecolyl-L-argioine-p-nitroaniline dihydrochloride”, “of Xa” for “of thrombin”
as §1

The values below come from US6716838B1, “Substituted polycyclic aryl and heteroaryl uracils as anticoagulative agents” (Pharmacia Corporation, priority 1999, dated 2004).

Bounds are passed on as bounds.

T1 sequence (P08709 213-466 limits assumed): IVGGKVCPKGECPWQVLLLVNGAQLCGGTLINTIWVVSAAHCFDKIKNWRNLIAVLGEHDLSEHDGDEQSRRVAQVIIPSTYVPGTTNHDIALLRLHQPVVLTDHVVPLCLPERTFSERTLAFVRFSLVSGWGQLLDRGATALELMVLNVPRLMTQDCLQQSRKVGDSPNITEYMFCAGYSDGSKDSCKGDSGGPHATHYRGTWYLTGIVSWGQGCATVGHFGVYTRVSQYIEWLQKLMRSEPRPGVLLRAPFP
T1 sequence (P08709 61-212 limits assumed): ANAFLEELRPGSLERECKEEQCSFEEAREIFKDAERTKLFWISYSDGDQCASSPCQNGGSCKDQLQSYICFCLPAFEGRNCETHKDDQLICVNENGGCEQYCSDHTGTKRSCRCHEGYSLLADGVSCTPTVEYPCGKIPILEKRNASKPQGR
T1 sequence (P13726 33-251 partner limits assumed): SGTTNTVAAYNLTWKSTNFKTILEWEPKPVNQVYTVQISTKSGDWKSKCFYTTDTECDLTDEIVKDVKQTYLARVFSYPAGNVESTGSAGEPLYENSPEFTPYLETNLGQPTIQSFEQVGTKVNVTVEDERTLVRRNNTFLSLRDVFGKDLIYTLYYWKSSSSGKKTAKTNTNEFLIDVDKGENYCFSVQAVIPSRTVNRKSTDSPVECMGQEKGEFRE
T3 sequence (P00742 235-488 limits assumed): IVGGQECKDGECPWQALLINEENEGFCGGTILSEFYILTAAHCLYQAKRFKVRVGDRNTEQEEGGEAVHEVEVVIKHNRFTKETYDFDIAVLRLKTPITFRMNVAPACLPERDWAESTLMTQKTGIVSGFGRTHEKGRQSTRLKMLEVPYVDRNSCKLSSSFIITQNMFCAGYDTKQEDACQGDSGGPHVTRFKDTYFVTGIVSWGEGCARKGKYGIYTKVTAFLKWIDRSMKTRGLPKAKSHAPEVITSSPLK
T3 sequence (P00742 41-179 limits assumed): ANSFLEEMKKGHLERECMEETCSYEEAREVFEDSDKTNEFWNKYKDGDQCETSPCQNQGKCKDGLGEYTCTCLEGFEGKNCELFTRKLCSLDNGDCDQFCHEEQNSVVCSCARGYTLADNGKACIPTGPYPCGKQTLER

One may read the IC50 as the concentration needed to halve the response being measured. As to `N=C(N)c1ccc(CNC(=O)Cn2c(=O)c(NS(=O)(=O)Cc3ccccc3)cn(Cc3ccccc3)c2=O)cc1` [Example 1], the IC50 in experiment [1] was over 100 µM; at human thrombin, 13 µM; in experiment [2], 400 nM; against human factor Xa, 25.6 µM.

With `N=C(N)NCCC[C@H](NC(=O)Cn1c(=O)c(NS(=O)(=O)Cc2ccccc2)cn(Cc2ccccc2)c1=O)C(=O)c1nccs1` [Example 2], the IC50 stood at 12.9 µM in experiment [1], 0.3 µM at human thrombin, 200 nM in experiment [2] and 0.2 µM against human factor Xa.
